In one data set the target is T1, GR (Homo sapiens, UniProt P04150).
T1 construct: expressed in transfected cells; host or cells: CHO-K1
T1 sequence (P04150 1-777): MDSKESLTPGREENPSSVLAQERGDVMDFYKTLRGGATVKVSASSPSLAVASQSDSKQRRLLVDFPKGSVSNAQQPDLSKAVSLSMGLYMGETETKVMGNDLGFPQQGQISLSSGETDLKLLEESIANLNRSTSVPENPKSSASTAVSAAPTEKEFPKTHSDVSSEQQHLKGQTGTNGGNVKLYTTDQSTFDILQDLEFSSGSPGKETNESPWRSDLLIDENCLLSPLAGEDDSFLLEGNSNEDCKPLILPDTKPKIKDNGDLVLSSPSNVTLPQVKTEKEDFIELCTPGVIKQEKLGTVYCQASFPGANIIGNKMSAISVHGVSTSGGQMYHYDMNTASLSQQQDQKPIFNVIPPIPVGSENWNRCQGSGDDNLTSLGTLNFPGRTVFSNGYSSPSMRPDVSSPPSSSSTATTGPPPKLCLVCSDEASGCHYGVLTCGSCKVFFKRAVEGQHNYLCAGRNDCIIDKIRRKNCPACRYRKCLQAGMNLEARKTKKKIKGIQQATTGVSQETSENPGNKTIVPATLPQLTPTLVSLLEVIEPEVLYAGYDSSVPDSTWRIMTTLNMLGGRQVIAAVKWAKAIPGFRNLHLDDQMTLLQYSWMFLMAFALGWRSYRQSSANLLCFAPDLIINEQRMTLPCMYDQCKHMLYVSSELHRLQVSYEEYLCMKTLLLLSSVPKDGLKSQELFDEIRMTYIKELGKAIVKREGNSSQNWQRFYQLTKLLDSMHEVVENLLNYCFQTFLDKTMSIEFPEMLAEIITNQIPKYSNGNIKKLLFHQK
In words: In Vitro GR Luciferase Reporter Assay (antagonist mode, CHO-K1-GR-MMTV-Luc reporter cells). Conditions: antagonist mode, 10 nM Dexamethasone. The data set is classed as cell-based. In outline: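 Antagonist mode: compounds (8 serial 1:5 dilutions) added to GR-MMTV-luciferase CHO-K1 reporter cells co-exposed to 10 nM dexamethasone final, in phenol red-free DMEM plus 10% CSS. After roughly 18-24 h at 37° C, OneGlo luminescence read and IC50 calculated.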
A general note: A reporter such as luciferase makes a cellular process visible.

In another data set the target is T2, CYP2C8 (Homo sapiens, UniProt P10632).
T2 construct: Pooled human microsomes were obtained from Sekisui XenoTech, KS; tissue Sekisui XenoTech, KS; host or cells: pooled human liver microsomes
T2 sequence (P10632 1-490): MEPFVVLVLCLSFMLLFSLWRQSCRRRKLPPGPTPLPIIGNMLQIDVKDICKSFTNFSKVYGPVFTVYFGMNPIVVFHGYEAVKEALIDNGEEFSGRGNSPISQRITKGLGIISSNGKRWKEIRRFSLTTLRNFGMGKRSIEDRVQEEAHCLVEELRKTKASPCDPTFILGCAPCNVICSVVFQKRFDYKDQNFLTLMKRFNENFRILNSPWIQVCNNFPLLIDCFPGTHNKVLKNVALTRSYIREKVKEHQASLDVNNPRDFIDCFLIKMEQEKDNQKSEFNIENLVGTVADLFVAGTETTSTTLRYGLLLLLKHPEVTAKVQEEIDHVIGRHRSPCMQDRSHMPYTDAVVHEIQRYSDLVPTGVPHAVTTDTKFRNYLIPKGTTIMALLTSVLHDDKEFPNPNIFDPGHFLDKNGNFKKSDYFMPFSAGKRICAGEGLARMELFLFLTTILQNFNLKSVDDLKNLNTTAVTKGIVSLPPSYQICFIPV
In words: CYP Inhibition Assay (CYP2C8, human liver microsomes, paclitaxel substrate). It is filed as in vitro ADME. The following applies: pH 7.4; pooled human liver microsomes 0.1 mg/mL, probe substrate paclitaxel. The gist of the method: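 CYP2C8 activity read as 6α-hydroxypaclitaxel formation by LC-MS/MS, with % inhibition versus vehicle control. Reactions ran 5 min at 37° C, pH 7.4 phosphate buffer, 0.1 mg/mL pooled human liver microsomes, 1 mM NADPH, duplicate wells.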
(Microsomes from liver hold many membrane-bound enzymes, among them those of drug oxidation.)

IC50 and inhibition data for 15 compounds are collected here from patent US20210122730A1, “GLUCOCORTICOID RECEPTOR MODULATORS” (ORIC Pharmaceuticals, Inc., priority 2017, published 2021).

pIC50: −log10 of the molar value.

A word on the pIC50: it is −log10 of the IC50, conventionally taken in molar units. A high value points to a low IC50. By inhibition is commonly meant the percentage by which the read-out fell short of the control. In the case of `Cn1ccc(S(=O)(=O)N(CC(F)F)[C@H]2CCC3=Cc4c(cnn4-c4ccc(F)cc4)C[C@]3(C(=O)c3cc(C(F)(F)F)ccn3)C2)n1` [Example 313, N-(2,2-difluoroethyl)-N-((4aS,6S)-1-(4-fluorophenyl)-4a-(4-(trifluoromethyl)picolinoyl)-4,4a,5,6,7,8-hexahydro-1H-benzo[f]indazol-6-yl)-1-methyl-1H-pyrazole-3-sulfonamide], the pIC50 against GR is at least 7.00. The inhibition at 5 min on CYP2C8 is 25 to 50%.
The corresponding values for `Cn1cnc(S(=O)(=O)N(CC2CC2)[C@H]2CCC3=Cc4c(cnn4-c4ccc(F)cc4)C[C@]3(C(=O)c3ncc(C(F)(F)F)s3)C2)n1` [Example 315, N-(cyclopropylmethyl)-N-((4aS,6S)-1-(4-fluorophenyl)-4a-(5-(trifluoromethyl)thiazole-2-carbonyl)-4,4a,5,6,7,8-hexahydro-1H-benzo[f]indazol-6-yl)-1-methyl-1H-1,2,4-triazole-3-sulfonamide] are at least 7.00 and 25 to 50%.
The corresponding values for `O=C(c1cc(F)ccn1)[C@]12Cc3cnn(-c4ccc(F)cc4)c3C=C1CC[C@H](N(CC1CC1)S(=O)(=O)c1ccc(Cl)nc1)C2` [Example 319, 6-chloro-N-(cyclopropylmethyl)-N-((4aS,6S)-1-(4-fluorophenyl)-4a-(4-fluoropicolinoyl)-4,4a,5,6,7,8-hexahydro-1H-benzo[f]indazol-6-yl)pyridine-3-sulfonamide] are at least 7.00 and 50 to 75%.
Turning to `O=C(c1cc(F)ccn1)[C@]12Cc3cnn(-c4ccc(F)cc4)c3C=C1CC[C@H](N(C1CC1)S(=O)(=O)c1ccc(Cl)nc1)C2` [Example 320, 6-chloro-N-cyclopropyl-N-((4aS,6S)-1-(4-fluorophenyl)-4a-(4-fluoropicolinoyl)-4,4a,5,6,7,8-hexahydro-1H-benzo[f]indazol-6-yl)pyridine-3-sulfonamide], at GR, the pIC50 is at least 7.00. At CYP2C8, this compound registered an inhibition at 5 min of 25 to 50%.
The corresponding values for `O=C(c1cc(Cl)ccn1)[C@]12Cc3cnn(-c4ccc(F)cc4)c3C=C1CC[C@H](N(C1CC1)S(=O)(=O)c1ccc(Cl)nc1)C2` [Example 321, 6-chloro-N-((4aS,6S)-4a-(4-chloropicolinoyl)-1-(4-fluorophenyl)-4,4a,5,6,7,8-hexahydro-1H-benzo[f]indazol-6-yl)-N-cyclopropylpyridine-3-sulfonamide] are at least 7.00 and at most 25%.
Consider `CC(C)N([C@H]1CCC2=Cc3c(cnn3-c3ccc(F)cc3)C[C@]2(C(=O)c2cc(F)ccn2)C1)S(=O)(=O)c1ccc(Cl)nc1` [Example 322, 6-chloro-N-((4aS,6S)-1-(4-fluorophenyl)-4a-(4-fluoropicolinoyl)-4,4a,5,6,7,8-hexahydro-1H-benzo[f]indazol-6-yl)-N-isopropylpyridine-3-sulfonamide], for which the pIC50 against GR is at least 7.00. The same compound came in with an inhibition at 5 min against CYP2C8 of 25 to 50%.
The corresponding values for `Cn1cnc(S(=O)(=O)N(C2CC(F)(F)C2)[C@H]2CCC3=Cc4c(cnn4-c4ccc(F)cc4)C[C@]3(C(=O)c3ncc(C(F)(F)F)s3)C2)n1` [Example 324, N-(3,3-difluorocyclobutyl)-N-((4aS,6S)-1-(4-fluorophenyl)-4a-(5-(trifluoromethyl)thiazole-2-carbonyl)-4,4a,5,6,7,8-hexahydro-1H-benzo[f]indazol-6-yl)-1-methyl-1H-1,2,4-triazole-3-sulfonamide] are at least 7.00 and 25 to 50%.
The corresponding values for `Cn1cnc(S(=O)(=O)N(C2CC(F)(F)C2)[C@H]2CCC3=Cc4c(cnn4-c4ccc(F)cc4)C[C@]3(C(=O)c3cc(C(F)(F)F)ccn3)C2)c1` [Example 325, N-(3,3-difluorocyclobutyl)-N-((4aS,6S)-1-(4-fluorophenyl)-4a-(4-(trifluoromethyl)picolinoyl)-4,4a,5,6,7,8-hexahydro-1H-benzo[f]indazol-6-yl)-1-methyl-1H-imidazole-4-sulfonamide] are at least 7.00 and at most 25%.
The corresponding values for `Cn1ccc(S(=O)(=O)N([C@H]2CCC3=Cc4c(cnn4-c4ccc(F)cc4)C[C@]3(C(=O)c3ncc(C(F)(F)F)s3)C2)[C@H]2C[C@](C)(O)C2)n1` [Example 326, N-((4aS,6S)-1-(4-fluorophenyl)-4a-(5-(trifluoromethyl)thiazole-2-carbonyl)-4,4a,5,6,7,8-hexahydro-1H-benzo[f]indazol-6-yl)-N-((1r,3S)-3-hydroxy-3-methylcyclobutyl)-1-methyl-1H-pyrazole-3-sulfonamide] are at least 7.00 and 50 to 75%.
`CC(C)N([C@H]1CCC2=Cc3c(cnn3-c3ccc(F)cc3)C[C@]2(C(=O)c2ncc(C(F)(F)F)s2)C1)S(=O)(=O)c1ncn(C)n1` [Example 327, N-((4aS,6S)-1-(4-fluorophenyl)-4a-(5-(trifluoromethyl)thiazole-2-carbonyl)-4,4a,5,6,7,8-hexahydro-1H-benzo[f]indazol-6-yl)-N-isopropyl-1-methyl-1H-1,2,4-triazole-3-sulfonamide] showed a pIC50 against GR of at least 7.00. Further, the inhibition at 5 min against CYP2C8 fell in the range of 25 to 50%.
On GR, `CC(C)N([C@H]1CCC2=Cc3c(cnn3-c3ccc(F)cc3)C[C@]2(C(=O)c2cc(C(F)(F)F)ccn2)C1)S(=O)(=O)c1ncn(C)n1` [Example 328, N-((4aS,6S)-1-(4-fluorophenyl)-4a-(4-(trifluoromethyl)picolinoyl)-4,4a,5,6,7,8-hexahydro-1H-benzo[f]indazol-6-yl)-N-isopropyl-1-methyl-1H-1,2,4-triazole-3-sulfonamide] gave a negative logarithm of the IC50 (pIC50) of at least 7.00. On CYP2C8, the inhibition at 5 min is 25 to 50%.
The corresponding values for `Cn1cnc(S(=O)(=O)N(C2CC(F)(F)C2)[C@H]2CCC3=Cc4c(cnn4-c4ccc(F)cc4)C[C@]3(C(=O)c3cc(C(F)(F)F)ccn3)C2)n1` [Example 329, N-(3,3-difluorocyclobutyl)-N-((4aS,6S)-1-(4-fluorophenyl)-4a-(4-(trifluoromethyl)picolinoyl)-4,4a,5,6,7,8-hexahydro-1H-benzo[f]indazol-6-yl)-1-methyl-1H-1,2,4-triazole-3-sulfonamide] are at least 7.00 and 25 to 50%.
The corresponding values for `Cn1cnc(S(=O)(=O)N(CC(F)F)[C@H]2CCC3=Cc4c(cnn4-c4ccc(F)cc4)C[C@]3(C(=O)c3cc(C(F)(F)F)ccn3)C2)n1` [Example 330, N-(2,2-difluoroethyl)-N-((4aS,6S)-1-(4-fluorophenyl)-4a-(4-(trifluoromethyl)picolinoyl)-4,4a,5,6,7,8-hexahydro-1H-benzo[f]indazol-6-yl)-1-methyl-1H-1,2,4-triazole-3-sulfonamide] are at least 7.00 and 25 to 50%.
The corresponding values for `Cn1cnc(S(=O)(=O)N(CC(F)F)[C@H]2CCC3=Cc4c(cnn4-c4ccc(F)cc4)C[C@]3(C(=O)c3ncc(C(F)(F)F)s3)C2)n1` [Example 331, N-(2,2-difluoroethyl)-N-((4aS,6S)-1-(4-fluorophenyl)-4a-(5-(trifluoromethyl)thiazole-2-carbonyl)-4,4a,5,6,7,8-hexahydro-1H-benzo[f]indazol-6-yl)-1-methyl-1H-1,2,4-triazole-3-sulfonamide] are at least 7.00 and at most 25%.
Turning to `Cn1cnc(S(=O)(=O)N(C2CC(F)(F)C2)[C@H]2CCC3=Cc4c(cnn4-c4ccc(F)cc4)C[C@]3(C(=O)c3ncc(C(F)(F)F)s3)C2)c1` [Example 332, N-(3,3-difluorocyclobutyl)-N-((4aS,6S)-1-(4-fluorophenyl)-4a-(5-(trifluoromethyl)thiazole-2-carbonyl)-4,4a,5,6,7,8-hexahydro-1H-benzo[f]indazol-6-yl)-1-methyl-1H-imidazole-4-sulfonamide], the pIC50 at GR was at least 7.00. For the same compound, at CYP2C8, the inhibition at 5 min is at most 25%.
